Consider 23 molecules from ChEMBL document CHEMBL1151554, “Non thiazolidinedione antihyperglycaemic agents. 1: -Heteroatom substituted -phenylpropanoic acids” (Bioorg Med Chem Lett, 1996).

Each structure is given as a SMILES string. A value given as a limit tells only on which side of the number the result lay.

For the first test, the target named is T1, Peroxisome proliferator-activated receptor gamma (Homo sapiens) (UniProt P37231).
T1 sequence (whole entry): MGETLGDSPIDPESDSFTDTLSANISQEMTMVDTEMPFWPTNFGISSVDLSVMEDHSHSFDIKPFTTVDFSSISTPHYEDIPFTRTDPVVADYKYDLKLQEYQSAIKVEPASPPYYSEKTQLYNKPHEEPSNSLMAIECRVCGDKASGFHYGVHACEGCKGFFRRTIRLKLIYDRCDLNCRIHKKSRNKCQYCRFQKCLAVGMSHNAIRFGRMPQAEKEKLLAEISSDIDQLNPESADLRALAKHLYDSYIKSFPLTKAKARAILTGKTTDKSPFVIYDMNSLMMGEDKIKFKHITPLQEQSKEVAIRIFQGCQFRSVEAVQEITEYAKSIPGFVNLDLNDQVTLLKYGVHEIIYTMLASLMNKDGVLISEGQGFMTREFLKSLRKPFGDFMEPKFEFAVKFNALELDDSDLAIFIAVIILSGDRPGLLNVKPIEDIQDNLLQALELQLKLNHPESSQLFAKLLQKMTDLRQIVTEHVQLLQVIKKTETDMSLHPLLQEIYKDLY
`COC(=O)C(Cc1ccc(OCCN(C)c2nc3ccccc3o2)cc1)N(C)C` (stereo unspecified) had a Displacement of 26%.

The subject of the next test is Mus musculus. Briefly: In vivo inhibition of glucose load induced hyperglycaemia in fasted C57B1/6 ob/ob mice. Type of test: functional.
For the molecule `CN(CCOc1ccc(CC(C(=O)O)S(=O)(=O)c2ccccc2)cc1)c1nc2ccccc2o1` (stereo unspecified), the ED25 came out at 1000 µM/kg. The molecule `CN(CCOc1ccc(CC(Cl)C(=O)O)cc1)c1nc2ccccc2o1` (stereo unspecified) returned an ED25 of 10 µM/kg.

As for `COC(=O)C(Cc1ccc(OCCN(C)c2nc3ccccc3o2)cc1)SC` (stereo unspecified), the ED25 was 100 µM/kg. In turn, `COC(=O)CCc1ccc(OCCN(C)c2nc3ccccc3o2)cc1` returned an ED25 of over 2000 µM/kg. Same read-out and setting: as for `CN(CCOc1ccc(CC(OCCc2ccccc2)C(=O)O)cc1)c1nc2ccccc2o1` (stereo unspecified), the figure is 1 µM/kg. The molecule `COC(Cc1ccc(OCCN(C)c2nc3ccccc3o2)cc1)C(=O)O` (stereo unspecified) yielded an ED25 of 3 µM/kg. Regarding `COC(=O)C(Cc1ccc(OCCN(C)c2nc3ccccc3o2)cc1)Sc1ccccc1` (stereo unspecified), the ED25 was 30 µM/kg.

The molecule `COC(=O)C(Cl)Cc1ccc(OCCN(C)c2nc3ccccc3o2)cc1` (stereo unspecified) registered an ED25 of 10 µM/kg. The molecule `CN(CCOc1ccc(CC(Nc2ccccc2)C(=O)O)cc1)c1nc2ccccc2o1` (stereo unspecified) yielded an ED25 of 30 µM/kg. `CN(CCOc1ccc(CC(Oc2ccccc2)C(=O)O)cc1)c1nc2ccccc2o1` (stereo unspecified) displayed an ED25 of 1 µM/kg.

`CCCOC(Cc1ccc(OCCN(C)c2nc3ccccc3o2)cc1)C(=O)[O-].[Na+]` (stereo unspecified) yielded an ED25 of 0.3 µM/kg. The molecule `CNC(Cc1ccc(OCCN(C)c2nc3ccccc3o2)cc1)C(=O)OC` (stereo unspecified) came in with an ED25 of 1000 µM/kg. As to `COC(=O)C(Cc1ccc(OCCN(C)c2nc3ccccc3o2)cc1)N(C)C` (stereo unspecified), the ED25 amounted to 1000 µM/kg.

On to `CCOC(Cc1ccc(OCCN(C)c2nc3ccccc3o2)cc1)C(=O)O` (stereo unspecified), for which the ED25 is 0.1 µM/kg.

Turning to `CN(CCOc1ccc(CC2SC(=O)NC2=O)cc1)c1nc2ccccc2o1` (stereo unspecified) [BRL-48482], the ED25 turned out to be 3 µM/kg. On to `Cc1c(C)c2c(c(C)c1O)CCC(C)(COc1ccc(CC3SC(=O)NC3=O)cc1)O2` (stereo unspecified) [TROGLITAZONE], for which the ED25 was 400 µM/kg. Molecule `CN(CCOc1ccc(CC(OCc2ccccc2)C(=O)[O-])cc1)c1nc2ccccc2o1.[Na+]` (stereo unspecified) registered an ED25 of 0.3 µM/kg. Same read-out and setting: as for `COC(=O)C(Cc1ccc(OCCN(C)c2nc3ccccc3o2)cc1)OC(C)C` (stereo unspecified), the figure is under 0.3 µM/kg; as for `COC(=O)C(Cc1ccc(OCCN(C)c2nc3ccccc3o2)cc1)OC` (stereo unspecified), 3 µM/kg.

`CN(CCOc1ccc(CC(S)C(=O)O)cc1)c1nc2ccccc2o1` (stereo unspecified) registered an ED25 of 300 µM/kg. Take `CN(CCOc1ccc(CC(F)C(=O)O)cc1)c1nc2ccccc2o1` (stereo unspecified): the ED25 is 10 µM/kg. For `COC(=O)C(Br)Cc1ccc(OCCN(C)c2nc3ccccc3o2)cc1` (stereo unspecified), the ED25 is 100 µM/kg. For the molecule `CN(CCOc1ccc(CC(Sc2ccccc2)C(=O)O)cc1)c1nc2ccccc2o1` (stereo unspecified), the ED25 came out at 30 µM/kg.

Another test deals with T2, Peroxisome proliferator-activated receptor gamma (Homo sapiens, UniProt P37231).
T2 sequence (P37231 whole entry): T1 sequence (whole entry)
Description: inhibition of [125I]SB 236636 binding to human PPAR gamma receptor
By Ki is commonly meant the dissociation constant of the complex between target and ligand, obtained from inhibition or displacement. `CN(CCOc1ccc(CC(Oc2ccccc2)C(=O)O)cc1)c1nc2ccccc2o1` (stereo unspecified) yielded a Ki of 0.4 nM. This lies in the sub-nanomolar range. `CN(CCOc1ccc(CC(Sc2ccccc2)C(=O)O)cc1)c1nc2ccccc2o1` (stereo unspecified) returned a Ki of 37 nM.
